Publication PMC5989765, “The safety, tolerability, and pharmacokinetic profile of GSK2838232, a novel 2nd generation HIV maturation inhibitor, as assessed in healthy subjects” (Pharmacology Research & Perspectives, 2018)
Converted amounts (≈) assume the structure as drawn. “Also recorded” adds a separate entry of the source. Where two headings read alike, the source gives them in different places.

Columns and labels:
[1] = Study 200207: repeat dose 20-50 mg QD for 8 days, SDD, healthy subjects; format: in vivo, human
Experimental: This study was conducted in parallel with Study 200912 and was planned as a two‐part, double‐blind, placebo‐controlled, repeat dose escalation study of GSK2838232 with and without RTV for 8‐11 days. Subjects were randomized 3:1 to receive GSK2838232 or placebo. Part A was designed to evaluate GSK2838232 given alone for 8 days (20 mg and 50 mg GSK2838232 once‐daily (QD) for 8 days, respectively) and Part B was designed to evaluate GSK2838232 when co‐administered with 100 mg RTV QD for 11 days. Because of the occurrence of an SAE that was eventually determined to be unlikely to be related to GSK2838232 (see Safety discussion), the study was terminated early after one cohort in Part B (10 mg GSK2838232 + 100 mg RTV QD) had completed only 5 days of the planned 11‐day regimen.
(§1) Blood samples were taken via an indwelling cannula or by direct venipuncture, collected into a di‐potassium ethylenediaminetetraacetic acid (K2 EDTA) tube, and placed on wet ice. Samples were centrifuged at approximately 1500g for 10 minutes at approximately 4°C. Exactly 500 μL of the resulting plasma was transferred into labeled 1.4 mL Matrix TrakMate Tubes containing exactly 500 μL of 50 mmol/L citrate buffer, pH 4.0, and mixed well. When 500 μL of plasma was not able to be transferred, the ratio of plasma to citrate buffer was kept at 1:1. Buffered plasma samples were kept on ice and frozen at −70°C within 1 hour of collection. Plasma samples were analyzed for GSK2838232 using a validated analytical method based on protein precipitation, followed by high performance liquid chromatography with tandem mass spectrometry (HPLC/MS/MS) analysis.
(§2) Extracts were analyzed using HPLC (Shimadzu, Nexera, 30 series) and tandem mass spectrometry detection (HPLC‐MS/MS). The mass spectrometer used was an API‐5500 using IonSpray interface (500 V) in positive mode monitoring. The mass transitions were 809.5 to 255.1 and 816.5 to 262.1 for GSK2838232 and [2H7] GSK2838232 (the isotopically labeled internal standard), respectively. The chromatographic conditions utilized a Waters Acquity UPLC BEH C18 column (50 × 2.1 mm, 1.7 μm) with mobile phases consisting of 1 mmol/L ammonium formate:formic acid (100:0.005) (mobile phase A) and acetonitrile:formic acid (100:0.1) (mobile phase B) at a flow rate of 0.6 mL/min, with pump B at 63% held for 2 minutes. The assay was validated to have precision (%RSD) of 0.7%‐6.5% (within‐run) and 1.0%‐5.9% RSD (between‐run) and with accuracy (%bias) of 0.0%‐1.6%. […] The lower limit of quantification (LLQ) was 0.5 ng/mL, using a 50 μL aliquot of K2EDTA acidified plasma. The higher limit of quantification (HLQ) was 500 ng/mL.
(§3) The PK parameters were calculated by standard noncompartmental analysis based on actual sampling times using WinNonlin Version 6.3 or higher. Estimation of AUC used the linear up/log down trapezoidal rule.

[2] = Study 204953 Part 1A: single doses 50-250 mg API PiB with RTV, healthy subjects; format: in vivo, human; settings: for Cmax / Tmax / concentration at 24 h / AUC / half-life: human, plasma, oral; for Tmax / concentration at 24 h: median (range); for concentration at 24 h: read-out: C24; for AUC: read-out: AUC(0‐∞); for half-life: read-out: t½ (converted); for dose proportionality of exposure (AUC and C max): single doses 50 to 250 mg with RTV
Experimental: This study was planned as an extension of the previously conducted single‐ and multiple‐dose escalation studies described above. It was a double‐blind, placebo‐controlled, single and repeat dose escalation study of micronized API GSK2838232 with RTV conducted in three parts (Part 1A, Part 1B, and Part 2).
In Part 1A, a cohort of subjects was given single doses of 50, 100, and 250 mg of GSK2838232 with RTV, following 2 days of RTV predosing, in a sequential dose‐escalation design. Part 1B studied the relative bioavailability of GSK2838232 given as 100 mg (2 × 50 mg) capsules versus the reference API (PiB) in a two‐period crossover design with RTV, following 2 days of RTV predosing. In Period 3, subjects took the capsule formulation and RTV with a moderate fat meal (30% of calories from fat).
as §1, §2, §3

[3] = Safety and tolerability in healthy subjects across the four Phase I studies; format: in vivo, human
Experimental: Each one of the four studies described were conducted and completed at a single center in the United States (Parexel International, Baltimore, MD) per the ethical principles of “good clinical practice” (GCP) and the Declaration of Helsinki after obtaining a written informed consent from each subject. The protocols and amendments were approved by Aspire Investigational Review Board (Santee, California, USA).
Other screening assessments included 24‐hour Holter monitoring and baseline echocardiograms.
Nonclinical evaluation in short duration toxicology studies initially gave rise to potential cardiovascular signals which were minimal, appeared sporadically, and were not reproduced in longer term studies. Consequently, there was intensive and extensive cardiovascular monitoring at baseline and post‐dosing, including continuous Holter monitoring and regular cardiac troponin laboratory assessments in these early Phase I studies along with a high degree of vigilance for any findings and/or reported AEs of potential cardiovascular origin.

[4] = Pharmacokinetics in healthy subjects, statements across the Phase I studies; format: in vivo, human; settings: for half-life: human, plasma, oral
Experimental: as §1, §2, §3

[5] = system: HIV‐1; parameters: method as in earlier work; settings: cited from earlier work
[6] = repeated daily dosing with 50 mg, unboosted
[7] = single 50 mg API PiB, fasted, with ritonavir (2 days predosing)
[8] = single 100 mg API PiB, fasted, with ritonavir (2 days predosing), geometric mean (95% CI)
[9] = single 100 mg API PiB, fasted, with ritonavir (2 days predosing)
[10] = single 250 mg API PiB, fasted, with ritonavir (2 days predosing), geometric mean (95% CI)
[11] = single 250 mg API PiB, fasted, with ritonavir (2 days predosing)

In the case of CC(C)C1=C2[C@H]3CC[C@@H]4[C@@]5(C)CC[C@H](OC(=O)CC(C)(C)C(=O)O)C(C)(C)[C@@H]5CC[C@@]4(C)[C@]3(C)CC[C@@]2([C@@H](O)CN(CCN(C)C)Cc2ccc(Cl)cc2)CC1=O [GSK2838232], the “relatedness of the two cardiovascular events” value ([1]; Study 200207, after expert evaluation) is reported as “the likelihood of a relationship was very low”, the “cardiovascular finding: arrhythmia” value ([1]; Study 200207, one subject, 39 hours after last of eight daily 50 mg doses) is reported as “a nonsustained ventricular tachycardia (NSVT) that was associated with dyspnea in another” and the “cardiovascular finding: troponin” value ([1]; Study 200207, one subject, second day of dosing with 20 mg) is reported as “a mild troponin elevation in one subject”. For the same compound, the concentration at 39 hours ([1]; human, plasma, oral, one subject, 39 hours after the last of eight daily 50 mg doses, read-out: plasma concentration at the time of the NSVT event) was < 0.001 µg/mL, the half-life ([1]; human, plasma, oral, without boosting, repeat dosing, read-out: t½ (converted)) was ~15 h and the “accumulation ratio based on AUC” value [1, 6] was 1.2. For the same compound, the “accumulation ratio based on C max” value [1, 6] was 1.1, the “accumulation ratio based on Cτ” value [1, 6] was 1.4 and the “time to steady state” value ([1]; unboosted) was 3 days. For the same compound, the “dose proportionality of AUC and C max” value ([1]; unboosted, 20 mg and 50 mg QD for 8 days) was “slightly less than dose‐proportional”, the “increase in AUC and C max after a 2.5‐fold dose” value ([1]; unboosted, 20 mg to 50 mg QD for 8 days) was “approximately 2 fold” and the Cmax ([2]; single 50 mg API PiB, fasted, with ritonavir (2 days predosing), geometric mean (95% CI)) was 0.0157 µg/mL. The Tmax [2, 7] was 3 h, the concentration at 24 h [2, 7] was 0.00726 µg/mL and the Cmax [2, 8] was 0.0247 µg/mL. For the same compound, the AUC [2, 8] was 0.846 µg·h/mL, the half-life [2, 8] was 17.9 h and the Tmax [2, 9] was 5 h. For the same compound, the concentration at 24 h [2, 9] was 0.0132 µg/mL, the Cmax [2, 10] was 0.063 µg/mL and the AUC [2, 10] was 1.69 µg·h/mL. The half-life [2, 10] was 17.9 h, the Tmax [2, 11] was 5.98 h and the concentration at 24 h [2, 11] was 0.024 µg/mL. The CL/F [2, 8] was 118 (93.3, 150) L/h, the “dose proportionality of exposure (AUC and C max)” value [2] was “proportional PK; also recorded: proportional pharmacokinetics” and the “dose proportionality of exposure (AUC and C max)” value ([2]; listed as GSK283832) was “generally dose proportional”. For the same compound, the “cardiovascular toxicities / events related to study drug” value ([3]; healthy subjects) was “no cardiovascular toxicities were deemed related to study drug administration; also recorded: none were considered definitively related to GSK2838232”, the adverse events ([3]; healthy subjects, all dose regimens, up to 250 mg) was “few mild adverse events (AEs) with similar frequencies to placebo; also recorded: Few adverse events (AEs) were reported across all dose regimens” and the “drug‐related AEs” value ([3]; healthy subjects, four studies) was “no clearly identified drug‐related AEs”. The “changes in hematology or clinical chemistry laboratory values, including liver function tests” value ([3]; healthy subjects, exception one subject with gallstones (not treatment‐related)) was “no clinically significant changes”, the “AEs assessed with a reasonable likelihood of being drug‐related” value ([3]; infrequently reported) was “headache and dizziness” and the safety and tolerability ([3]; single doses up to 250 mg with 100 mg RTV, repeat doses up to 200 mg with 100 mg RTV for 11 days) was “good safety and tolerability profile”. For the same compound, the positive food effect ([4]; capsule formulation discussion) was “about 1.5 fold”, the “metabolite detected in human plasma” value ([4]; co‐administration with RTV) was “O‐glucuronide” and the absorption with food ([4]; fed state (moderate or high fat meal)) was “delayed and more variable”. The “increase in AUC with food” value ([4]; fed versus fasted) was ~ 60%, the “increase in C max with food” value ([4]; fed versus fasted) was ~ 60% and the half-life ([4]; nonboosted) was ~17 h. For the same compound, the half-life ([4]; with RTV) was ~34 h, the “dose proportionality of AUC and C max” value ([4]; single doses without RTV, 5‐100 mg (SDD, fasted)) was “proportional PK; also recorded: proportional to dose; also recorded: proportional pharmacokinetics” and the “shift in IC90 with human serum albumin added” value ([5]; assays to which human serum albumin was added) was “no significant shift”. For the same compound, the “IC90 in cell‐based assays (termed PA‐IC90, protein‐adjusted 90% inhibitory concentration)” value ([5]; calculated) was 5 ng/mL (≈ 6.18 nM), the IC90 ([5]; calculated, read-out: IC90 in cell‐based assays) was 6.4 nM and the “activity to viruses with key resistance mutations” value ([5]; panel of viruses) was “retains activity”.
